In brackets after ≈: the same amount, converted by molar mass.
tested on: Staphylococcus aureus; assay: microbe, parasite or virus in culture; format: functional; settings: read-out: IZ
Description: Antibacterial activity against Staphylococcus aureus at 300 ug/ml

SMILES	zone of inhibition at 300 µg/mL [mm]
COc1ccc(-[n+]2noc([O-])c2CNc2nc3ccc([N+](=O)[O-])cc3s2)cc1	16
COc1ccc(-[n+]2noc([O-])c2CNc2ccc(F)cc2)cc1	14
COc1ccc(-[n+]2noc([O-])c2CNc2cc(Cl)ccc2Cl)cc1	11
COc1ccc(-c2nc3ccccc3n2Cc2c([O-])on[n+]2-c2ccc(OC)cc2)cc1	11
COc1ccc(-[n+]2noc([O-])c2CNc2nc3ccc(Cl)cc3s2)cc1	14
COc1ccc(-[n+]2noc([O-])c2CNc2ccc(Br)cc2)cc1	10
COc1ccc(-[n+]2noc([O-])c2Cn2c(-c3cccc(Br)c3)nc3ccccc32)cc1	10
COc1ccc(-[n+]2noc([O-])c2Cn2c(-c3ccc([N+](=O)[O-])cc3)nc3ccccc32)cc1	10
COc1ccc(-[n+]2noc([O-])c2Cn2c(-c3ccccc3[N+](=O)[O-])nc3ccccc32)cc1	21

tested on: Bacillus subtilis; assay: microbe, parasite or virus in culture; format: functional; settings: not given

SMILES	MIC [µg/mL]
COc1ccc(-[n+]2noc([O-])c2CNc2nc3ccc([N+](=O)[O-])cc3s2)cc1	40 (≈ 100 µM)
COc1ccc(-[n+]2noc([O-])c2CNc2ccc(F)cc2)cc1	200 (≈ 634 µM)
COc1ccc(-[n+]2noc([O-])c2CNc2cc(Cl)ccc2Cl)cc1	300 (≈ 819 µM)
COc1ccc(-c2nc3ccccc3n2Cc2c([O-])on[n+]2-c2ccc(OC)cc2)cc1	200 (≈ 467 µM)
COc1ccc(-[n+]2noc([O-])c2CNc2nc3ccc(Cl)cc3s2)cc1	200 (≈ 514 µM)
COc1ccc(-[n+]2noc([O-])c2CNc2ccc(Br)cc2)cc1	200 (≈ 532 µM)
COc1ccc(-[n+]2noc([O-])c2Cn2c(-c3cccc(Br)c3)nc3ccccc32)cc1	500 (≈ 1050 µM)
COc1ccc(-[n+]2noc([O-])c2Cn2c(-c3ccc([N+](=O)[O-])cc3)nc3ccccc32)cc1	300 (≈ 677 µM)
COc1ccc(-[n+]2noc([O-])c2Cn2c(-c3ccccc3[N+](=O)[O-])nc3ccccc32)cc1	300 (≈ 677 µM)

tested on: Escherichia coli; assay: microbe, parasite or virus in culture; format: functional; settings: read-out: IZ
Description: Antibacterial activity against Escherichia coli at 300 ug/ml

SMILES	zone of inhibition at 300 µg/mL [mm]
COc1ccc(-[n+]2noc([O-])c2CNc2nc3ccc([N+](=O)[O-])cc3s2)cc1	12
COc1ccc(-[n+]2noc([O-])c2CNc2ccc(F)cc2)cc1	17
COc1ccc(-[n+]2noc([O-])c2CNc2cc(Cl)ccc2Cl)cc1	10
COc1ccc(-c2nc3ccccc3n2Cc2c([O-])on[n+]2-c2ccc(OC)cc2)cc1	15
COc1ccc(-[n+]2noc([O-])c2CNc2nc3ccc(Cl)cc3s2)cc1	13
COc1ccc(-[n+]2noc([O-])c2CNc2ccc(Br)cc2)cc1	12
COc1ccc(-[n+]2noc([O-])c2Cn2c(-c3cccc(Br)c3)nc3ccccc32)cc1	12
COc1ccc(-[n+]2noc([O-])c2Cn2c(-c3ccc([N+](=O)[O-])cc3)nc3ccccc32)cc1	18
COc1ccc(-[n+]2noc([O-])c2Cn2c(-c3ccccc3[N+](=O)[O-])nc3ccccc32)cc1	14

tested on: Bacillus subtilis; assay: microbe, parasite or virus in culture; format: functional; settings: read-out: IZ
Description: Antibacterial activity against Bacillus subtilis at 300 ug/ml

SMILES	zone of inhibition at 300 µg/mL [mm]
COc1ccc(-[n+]2noc([O-])c2CNc2nc3ccc([N+](=O)[O-])cc3s2)cc1	18
COc1ccc(-[n+]2noc([O-])c2CNc2ccc(F)cc2)cc1	16
COc1ccc(-[n+]2noc([O-])c2CNc2cc(Cl)ccc2Cl)cc1	12
COc1ccc(-c2nc3ccccc3n2Cc2c([O-])on[n+]2-c2ccc(OC)cc2)cc1	12
COc1ccc(-[n+]2noc([O-])c2CNc2nc3ccc(Cl)cc3s2)cc1	15
COc1ccc(-[n+]2noc([O-])c2CNc2ccc(Br)cc2)cc1	13
COc1ccc(-[n+]2noc([O-])c2Cn2c(-c3cccc(Br)c3)nc3ccccc32)cc1	10
COc1ccc(-[n+]2noc([O-])c2Cn2c(-c3ccc([N+](=O)[O-])cc3)nc3ccccc32)cc1	12
COc1ccc(-[n+]2noc([O-])c2Cn2c(-c3ccccc3[N+](=O)[O-])nc3ccccc32)cc1	12

tested on: Candida albicans; assay: Antifungal activity against Candida albicans at 300 ug/ml; format: functional; settings: read-out: IZ

SMILES	zone of inhibition at 300 µg/mL [mm]
COc1ccc(-[n+]2noc([O-])c2CNc2nc3ccc([N+](=O)[O-])cc3s2)cc1	17
COc1ccc(-[n+]2noc([O-])c2CNc2ccc(F)cc2)cc1	17
COc1ccc(-[n+]2noc([O-])c2CNc2cc(Cl)ccc2Cl)cc1	13
COc1ccc(-c2nc3ccccc3n2Cc2c([O-])on[n+]2-c2ccc(OC)cc2)cc1	14
COc1ccc(-[n+]2noc([O-])c2CNc2nc3ccc(Cl)cc3s2)cc1	16
COc1ccc(-[n+]2noc([O-])c2CNc2ccc(Br)cc2)cc1	15
COc1ccc(-[n+]2noc([O-])c2Cn2c(-c3cccc(Br)c3)nc3ccccc32)cc1	14
COc1ccc(-[n+]2noc([O-])c2Cn2c(-c3ccc([N+](=O)[O-])cc3)nc3ccccc32)cc1	12
COc1ccc(-[n+]2noc([O-])c2Cn2c(-c3ccccc3[N+](=O)[O-])nc3ccccc32)cc1	14

tested on: Candida albicans; assay: microbe, parasite or virus in culture; format: functional; settings: not given

SMILES	MIC [µg/mL]
COc1ccc(-[n+]2noc([O-])c2CNc2nc3ccc([N+](=O)[O-])cc3s2)cc1	100 (≈ 250 µM)
COc1ccc(-[n+]2noc([O-])c2CNc2ccc(F)cc2)cc1	100 (≈ 317 µM)
COc1ccc(-[n+]2noc([O-])c2CNc2cc(Cl)ccc2Cl)cc1	300 (≈ 819 µM)
COc1ccc(-c2nc3ccccc3n2Cc2c([O-])on[n+]2-c2ccc(OC)cc2)cc1	200 (≈ 467 µM)
COc1ccc(-[n+]2noc([O-])c2CNc2nc3ccc(Cl)cc3s2)cc1	100 (≈ 257 µM)
COc1ccc(-[n+]2noc([O-])c2CNc2ccc(Br)cc2)cc1	200 (≈ 532 µM)
COc1ccc(-[n+]2noc([O-])c2Cn2c(-c3cccc(Br)c3)nc3ccccc32)cc1	200 (≈ 419 µM)
COc1ccc(-[n+]2noc([O-])c2Cn2c(-c3ccc([N+](=O)[O-])cc3)nc3ccccc32)cc1	200 (≈ 451 µM)
COc1ccc(-[n+]2noc([O-])c2Cn2c(-c3ccccc3[N+](=O)[O-])nc3ccccc32)cc1	200 (≈ 451 µM)

tested on: Escherichia coli; assay: microbe, parasite or virus in culture; format: functional; settings: not given

SMILES	MIC [µg/mL]
COc1ccc(-[n+]2noc([O-])c2CNc2nc3ccc([N+](=O)[O-])cc3s2)cc1	300 (≈ 751 µM)
COc1ccc(-[n+]2noc([O-])c2CNc2ccc(F)cc2)cc1	100 (≈ 317 µM)
COc1ccc(-[n+]2noc([O-])c2CNc2cc(Cl)ccc2Cl)cc1	500 (≈ 1370 µM)
COc1ccc(-c2nc3ccccc3n2Cc2c([O-])on[n+]2-c2ccc(OC)cc2)cc1	300 (≈ 700 µM)
COc1ccc(-[n+]2noc([O-])c2CNc2nc3ccc(Cl)cc3s2)cc1	200 (≈ 514 µM)
COc1ccc(-[n+]2noc([O-])c2CNc2ccc(Br)cc2)cc1	300 (≈ 797 µM)
COc1ccc(-[n+]2noc([O-])c2Cn2c(-c3cccc(Br)c3)nc3ccccc32)cc1	300 (≈ 629 µM)
COc1ccc(-[n+]2noc([O-])c2Cn2c(-c3ccc([N+](=O)[O-])cc3)nc3ccccc32)cc1	60 (≈ 135 µM)
COc1ccc(-[n+]2noc([O-])c2Cn2c(-c3ccccc3[N+](=O)[O-])nc3ccccc32)cc1	200 (≈ 451 µM)

tested on: Staphylococcus aureus; assay: microbe, parasite or virus in culture; format: functional; settings: not given

SMILES	MIC [µg/mL]
COc1ccc(-[n+]2noc([O-])c2CNc2nc3ccc([N+](=O)[O-])cc3s2)cc1	80 (≈ 200 µM)
COc1ccc(-[n+]2noc([O-])c2CNc2ccc(F)cc2)cc1	200 (≈ 634 µM)
COc1ccc(-[n+]2noc([O-])c2CNc2cc(Cl)ccc2Cl)cc1	300 (≈ 819 µM)
COc1ccc(-c2nc3ccccc3n2Cc2c([O-])on[n+]2-c2ccc(OC)cc2)cc1	300 (≈ 700 µM)
COc1ccc(-[n+]2noc([O-])c2CNc2nc3ccc(Cl)cc3s2)cc1	200 (≈ 514 µM)
COc1ccc(-[n+]2noc([O-])c2CNc2ccc(Br)cc2)cc1	300 (≈ 797 µM)
COc1ccc(-[n+]2noc([O-])c2Cn2c(-c3cccc(Br)c3)nc3ccccc32)cc1	500 (≈ 1050 µM)
COc1ccc(-[n+]2noc([O-])c2Cn2c(-c3ccc([N+](=O)[O-])cc3)nc3ccccc32)cc1	500 (≈ 1130 µM)
COc1ccc(-[n+]2noc([O-])c2Cn2c(-c3ccccc3[N+](=O)[O-])nc3ccccc32)cc1	40 (≈ 90.2 µM)

tested on: Pseudomonas aeruginosa; assay: microbe, parasite or virus in culture; format: functional; settings: not given

SMILES	MIC [µg/mL]
COc1ccc(-[n+]2noc([O-])c2CNc2nc3ccc([N+](=O)[O-])cc3s2)cc1	200 (≈ 501 µM)
COc1ccc(-[n+]2noc([O-])c2CNc2ccc(F)cc2)cc1	300 (≈ 951 µM)
COc1ccc(-[n+]2noc([O-])c2CNc2cc(Cl)ccc2Cl)cc1	500 (≈ 1370 µM)
COc1ccc(-c2nc3ccccc3n2Cc2c([O-])on[n+]2-c2ccc(OC)cc2)cc1	300 (≈ 700 µM)
COc1ccc(-[n+]2noc([O-])c2CNc2nc3ccc(Cl)cc3s2)cc1	200 (≈ 514 µM)
COc1ccc(-[n+]2noc([O-])c2CNc2ccc(Br)cc2)cc1	200 (≈ 532 µM)
COc1ccc(-[n+]2noc([O-])c2Cn2c(-c3cccc(Br)c3)nc3ccccc32)cc1	500 (≈ 1050 µM)
COc1ccc(-[n+]2noc([O-])c2Cn2c(-c3ccc([N+](=O)[O-])cc3)nc3ccccc32)cc1	300 (≈ 677 µM)
COc1ccc(-[n+]2noc([O-])c2Cn2c(-c3ccccc3[N+](=O)[O-])nc3ccccc32)cc1	500 (≈ 1130 µM)

tested on: Pseudomonas aeruginosa; assay: microbe, parasite or virus in culture; format: functional; settings: read-out: IZ
Description: Antibacterial activity against Pseudomonas aeruginosa at 300 ug/ml

SMILES	zone of inhibition at 300 µg/mL [mm]
COc1ccc(-[n+]2noc([O-])c2CNc2nc3ccc([N+](=O)[O-])cc3s2)cc1	16
COc1ccc(-[n+]2noc([O-])c2CNc2ccc(F)cc2)cc1	11
COc1ccc(-[n+]2noc([O-])c2CNc2cc(Cl)ccc2Cl)cc1	10
COc1ccc(-c2nc3ccccc3n2Cc2c([O-])on[n+]2-c2ccc(OC)cc2)cc1	12
COc1ccc(-[n+]2noc([O-])c2CNc2nc3ccc(Cl)cc3s2)cc1	13
COc1ccc(-[n+]2noc([O-])c2CNc2ccc(Br)cc2)cc1	13
COc1ccc(-[n+]2noc([O-])c2Cn2c(-c3cccc(Br)c3)nc3ccccc32)cc1	10
COc1ccc(-[n+]2noc([O-])c2Cn2c(-c3ccc([N+](=O)[O-])cc3)nc3ccccc32)cc1	12
COc1ccc(-[n+]2noc([O-])c2Cn2c(-c3ccccc3[N+](=O)[O-])nc3ccccc32)cc1	10
